In this assay the target is T1, human CRF receptors (Homo sapiens, UniProt P34998).
T1 construct: expressed in transfected cells
T1 sequence (P34998 24-415): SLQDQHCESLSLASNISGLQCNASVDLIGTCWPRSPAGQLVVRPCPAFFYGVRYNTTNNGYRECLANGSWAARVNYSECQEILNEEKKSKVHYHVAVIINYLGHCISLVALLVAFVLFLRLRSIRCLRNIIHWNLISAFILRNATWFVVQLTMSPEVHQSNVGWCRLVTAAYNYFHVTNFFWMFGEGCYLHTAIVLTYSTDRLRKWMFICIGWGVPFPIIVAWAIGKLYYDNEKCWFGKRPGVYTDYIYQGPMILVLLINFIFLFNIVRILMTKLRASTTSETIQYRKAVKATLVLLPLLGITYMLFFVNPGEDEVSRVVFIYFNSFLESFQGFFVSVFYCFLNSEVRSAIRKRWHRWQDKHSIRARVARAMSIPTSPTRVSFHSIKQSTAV
In words: CRF receptor binding activity (radioligand displacement, Example 25). The text has this:
The effectiveness of a compound as a CRF receptor antagonist may be determined by various assay methods. […] CRF receptor affinity may be determined by binding studies that measure the ability of a compound to inhibit the binding of a radiolabeled CRF (e.g., [^125I]tyrosine-CFR) to its receptor (e.g., receptors prepared from rat cerebral cortex membranes). The radioligand binding assay described by DeSouza et al. (supra, 1987) provides an assay for determining a compound's affinity for the CRF receptor.
[formula] where L=radioligand and KD=affinity of radioligand for receptor (Cheng and Prusoff, Biochem. Pharmacol. 22:3099, 1973).
By utilizing radiolabeled CRF ligands, the assay may be used to evaluate the binding activity of the compounds of the present invention with any CRF receptor subtype.
Briefly, the binding assay involves the displacement of a radiolabeled CRF ligand from the CRF receptor. More specifically, the binding assay is performed in 96-well assay plates using 1-10 μg cell membranes from cells stably transfected with human CRF receptors. […] The mixture is incubated for 2 hours at 22° C. followed by separation of the bound and free radioligand by rapid filtration over glass fiber filters. Following three washes, the filters are dried and radioactivity (Auger electrons from ^125I) is counted using a scintillation counter. All radioligand binding data may be analyzed using the non-linear least-squares curve-fitting programs Prism (GraphPad Software Inc) or XLfit (ID Business Solutions Ltd).
(In general: Loss of bound radioactivity is the signal in a displacement assay; it reports binding, not function.)

[1] abbreviates: displacement of [125I] tyrosine-sauvagine from membranes of cells stably transfected with human CRF receptors, less than 0.10 μM (i.e., 100 nM), read-out: Ki (CRF receptor binding affinity).

Like-named read-outs stand apart in the source and are kept apart here.

Turning to `COc1ccc(-c2c(C)nn3c(N[C@H](C)Cc4nc(C(F)(F)F)no4)cc(C)nc23)c(C)c1` [Example 13-5, [3-(4-Methoxy-2-methyl-phenyl)-2,5-dimethyl-pyrazolo[1,5-a]pyrimidin-7-yl]-[(R)-1-methyl-2-(3-trifluoromethyl-[1,2,4]oxadiazol-5-yl)-ethyl]-amine], under setting [1], the Ki – broadly, the equilibrium dissociation constant of an inhibitor or competing ligand from its target – is under 100 nM.
For the compound `COc1ccc(-c2c(C)nn3c(N[C@H](C)Cc4nc(C(F)(F)F)no4)cc(C)nc23)c(Cl)c1` [Example 13-6, [3-(2-Chloro-4-methoxy-phenyl)-2,5-dimethyl-pyrazolo[1,5-a]pyrimidin-7-yl]-[(R)-1-methyl-2-(3-trifluoromethyl-[1,2,4]oxadiazol-5-yl)-ethyl]-amine], the Ki under setting [1] was under 100 nM.
On the same count and under the same terms, the result for `COc1ccc(-c2c(C)nn3c(N[C@H](C)Cc4nc(C(F)(F)F)no4)cc(C)nc23)c(OC)c1` [Example 13-7, [3-(2,4-Dimethoxy-phenyl)-2,5-dimethyl-pyrazolo[1,5-a]pyrimidin-7-yl]-[(R)-1-methyl-2-(3-trifluoromethyl-[1,2,4]oxadiazol-5-yl)-ethyl]-amine] reads under 100 nM; that for `COc1ccc(-c2c(C)nn3c(N[C@@H](Cc4nc(C)no4)C(F)(F)F)cc(C)nc23)c(OC)c1` [Example 13-8, [3-(2,4-Dimethoxy-phenyl)-2,5-dimethyl-pyrazolo[1,5-a]pyrimidin-7-yl]-[2,2,2-trifluoro-(S)-1-(3-methyl-[1,2,4]oxadiazol-5-ylmethyl)-ethyl]-amine], under 100 nM.
Turning to `COc1ccc(-c2c(C)nn3c(N[C@@H](Cc4nc(C(F)(F)F)no4)C(F)(F)F)cc(C)nc23)c(OC)c1` [Example 13-9, [3-(2,4-Dimethoxy-phenyl)-2,5-dimethyl-pyrazolo[1,5-a]pyrimidin-7-yl]-[2,2,2-trifluoro-(S)-1-(3-trifluoromethyl-[1,2,4]oxadiazol-5-ylmethyl)-ethyl]-amine], the Ki under setting [1] was under 100 nM.
Turning to `COc1ccc(-c2c(C)nn3c(N4CCC[C@H]4Cc4nc(C)no4)cc(C)nc23)c(C)c1` [Example 14-3, 3-(4-Methoxy-2-methyl-phenyl)-2,5-dimethyl-7-[(S)-2-(3-methyl-[1,2,4]oxadiazol-5-ylmethyl)-pyrrolidin-1-yl]-pyrazolo[1,5-a]pyrimidine], the Ki under setting [1] is under 100 nM.
For `CC[C@H](Nc1cc(C)nc2c(-c3ccc(OC)cc3Cl)c(C)nn12)c1nc(C)no1` [Example 14-4, [3-(2-Chloro-4-methoxy-phenyl)-2,5-dimethyl-pyrazolo[1,5-a]pyrimidin-7-yl]-[(S)-1-(3-methyl-[1,2,4]oxadiazol-5-yl)-propyl]-amine], under setting [1], the Ki is under 100 nM.
On the same count and under the same terms, as for `COCCN(Cc1nc(C)no1)c1cc(C)nc2c(-c3ccc(OC)cc3OC)c(C)nn12` [Example 15-1, [3-(2,4-Dimethoxy-phenyl)-2,5-dimethyl-pyrazolo[1,5-a]pyrimidin-7-yl]-(2-methoxy-ethyl)-(3-methyl-[1,2,4]oxadiazol-5-ylmethyl)-amine], the figure is under 100 nM.
Take `COc1ccc(-c2c(C)nn3c(N[C@H](C)Cc4noc(C)n4)cc(C)nc23)c(C)c1` [Example 17-1, [3-(4-Methoxy-2-methyl-phenyl)-2,5-dimethyl-pyrazolo[1,5-a]pyrimidin-7-yl]-[(R)-1-methyl-2-(5-methyl-[1,2,4]oxadiazol-3-yl)-ethyl]-amine]: the Ki is under 100 nM.
As for `CC[C@@H](Cc1noc(C)n1)Nc1cc(C)nc2c(-c3ccc(OC)cc3C)c(C)nn12` [Example 17-2, [3-(4-Methoxy-2-methyl-phenyl)-2,5-dimethyl-pyrazolo[1,5-a]pyrimidin-7-yl]-[(S)-1-(5-methyl-[1,2,4]oxadiazol-3-ylmethyl)-propyl]-amine], the inhibition constant (Ki) under setting [1] is under 100 nM.
Take `CC[C@H](Cc1noc(C)n1)Nc1cc(C)nc2c(-c3ccc(OC)cc3C)c(C)nn12` [Example 17-3, [3-(4-Methoxy-2-methyl-phenyl)-2,5-dimethyl-pyrazolo[1,5-a]pyrimidin-7-yl]-[(R)-1-(5-methyl-[1,2,4]oxadiazol-3-ylmethyl)-propyl]-amine]: the Ki under setting [1] is under 100 nM.
On the same count and under the same terms, as for `COc1ccc(-c2c(C)nn3c(N[C@H](C)Cc4noc(C5CC5)n4)cc(C)nc23)c(C)c1` [Example 18-1, [(R)-2-(5-Cyclopropyl-[1,2,4]oxadiazol-3-yl)-1-methyl-ethyl]-[3-(4-methoxy-2-methyl-phenyl)-2,5-dimethyl-pyrazolo[1,5-a]pyrimidin-7-yl]-amine], the figure is under 100 nM; as for `COc1ccc(-c2c(C)nn3c(N[C@H](C)Cc4noc(C(F)(F)F)n4)cc(C)nc23)c(C)c1` [Example 18-2, [3-(4-Methoxy-2-methyl-phenyl)-2,5-dimethyl-pyrazolo[1,5-a]pyrimidin-7-yl]-[(R)-1-methyl-2-(5-trifluoromethyl-[1,2,4]oxadiazol-3-yl)-ethyl]-amine], under 100 nM.
With `COc1ccc(-c2c(C)nn3c(N[C@@H](Cc4noc(C)n4)C(F)(F)F)cc(C)nc23)c(C)c1` [Example 19-1, [3-(4-Methoxy-2-methyl-phenyl)-2,5-dimethyl-pyrazolo[1,5-a]pyrimidin-7-yl]-[(S)-2,2,2-trifluoro-1-(5-methyl-[1,2,4]oxadiazol-3-ylmethyl)-ethyl]-amine], under setting [1], the Ki was under 100 nM.
`CCN(Cc1nc(C)no1)c1cc(C)nc2c(-c3ccc(OC)cc3C)c(C)nn12` [Example 20-1, Ethyl-[3-(4-methoxy-2-methyl-phenyl)-2,5-dimethyl-pyrazolo[1,5-a]pyrimidin-7-yl]-(3-methyl-[1,2,4]oxadiazol-5-ylmethyl)-amine] gave a Ki of under 100 nM.
As to `COc1ccc(-c2c(C)nn3c(N4CCCCC4Cc4nc(C)no4)cc(C)nc23)c(C)c1` (centres unmarked) [Example 20-2, 3-(4-Methoxy-2-methyl-phenyl)-2,5-dimethyl-7-[2-(3-methyl-[1,2,4]oxadiazol-5-ylmethyl)-piperidin-1-yl]-pyrazolo[1,5-a]pyrimidine], the Ki under setting [1] is under 100 nM.
For `CCC(Nc1cc(C)nc2c(-c3ccc(OC)cc3C)c(C)nn12)c1nnco1` (centres unmarked) [Example 21-1, [3-(4-Methoxy-2-methyl-phenyl)-2,5-dimethyl-pyrazolo[1,5-a]pyrimidin-7-yl]-(1-[1,3,4]oxadiazol-2-yl-propyl)-amine], under setting [1], the Ki was under 100 nM.
Turning to `CCC(Nc1cc(C)nc2c(-c3ccc(OC)cc3C)c(C)nn12)c1nnc(C)o1` (centres unmarked) [Example 22-1, [3-(4-Methoxy-2-methyl-phenyl)-2,5-dimethyl-pyrazolo[1,5-a]pyrimidin-7-yl]-[1-(5-methyl-[1,3,4]oxadiazol-2-yl)-propyl]-amine], the Ki was under 100 nM.
Take `COc1ccc(-c2c(C)nn3c(NC(C)Cc4nnc(C(F)(F)F)o4)cc(C)nc23)c(C)c1` (centres unmarked) [Example 23-2, [3-(4-Methoxy-2-methyl-phenyl)-2,5-dimethyl-pyrazolo[1,5-a]pyrimidin-7-yl]-[1-methyl-2-(5-trifluoromethyl-[1,3,4]oxadiazol-2-yl)-ethyl]-amine]: under setting [1], the Ki is under 100 nM.
As to `CCC(Nc1cc(C)nc2c(-c3ccc(OC)cc3Cl)c(C)nn12)c1nc(C)no1` (centres unmarked) [Example 24-1, [3-(2-Chloro-4-methoxy-phenyl)-2,5-dimethyl-pyrazolo[1,5-a]pyrimidin-7-yl]-[1-(3-methyl-[1,2,4]oxadiazol-5-yl)-propyl]-amine], the Ki under setting [1] is under 100 nM.
As to `CCC(Nc1cc(C)nc2c(-c3ccc(Cl)cc3OC)c(C)nn12)c1nc(C)no1` (centres unmarked) [Example 24-2, [3-(4-Chloro-2-methoxy-phenyl)-2,5-dimethyl-pyrazolo[1,5-a]pyrimidin-7-yl]-[1-(3-methyl-[1,2,4]oxadiazol-5-yl)-propyl]-amine], the Ki under setting [1] was under 100 nM.
Take `CCC(Nc1cc(C)nc2c(-c3ccc(Cl)cc3C)c(C)nn12)c1nc(C)no1` (centres unmarked) [Example 24-4, [3-(4-Chloro-2-methyl-phenyl)-2,5-dimethyl-pyrazolo[1,5-a]pyrimidin-7-yl]-[1-(3-methyl-[1,2,4]oxadiazol-5-yl)-propyl]-amine]: the Ki under setting [1] was under 100 nM.
Consider `CCC(Nc1cc(C)nc2c(-c3ccc(C)cc3Cl)c(C)nn12)c1nc(C)no1` (centres unmarked) [Example 24-6, [3-(2-Chloro-4-methyl-phenyl)-2,5-dimethyl-pyrazolo[1,5-a]pyrimidin-7-yl]-[1-(3-methyl-[1,2,4]oxadiazol-5-yl)-propyl]-amine], for which, under setting [1], the Ki is under 100 nM.

Source of the values: patent US7879862B2, “Pyrazolo[1,5-alpha]pyrimidinyl derivatives useful as corticotropin-releasing factor (CRF) receptor antagonists” (SmithKline Beecham (Cork) Limited, priority 2004, dated 2011).
